Source: a melting point compilation (Tetko et al.; mined from patent text by program, amines drawn as free bases though some values may be those of a salt)

| melting point | Compound |
| --- | --- |
| 247 to 248 °C | CN1CCN(c2c(F)c(N)c3c(=O)c(C(=O)O)cn(C4CC4)c3c2F)CC1 |
| 218 to 219 °C | CCOC(=O)c1cccc2c3c([nH]c12)CN(CC(=O)NC(C(=O)C(F)(F)F)C(C)C)C=C3 (stereo not drawn) |
| 204 to 205 °C | CCCCc1nc2cccc(C(=O)OC)c2n1Cc1ccc(-c2ccccc2-c2n[nH]c(=O)o2)cc1 |
| 169 to 171 °C | CON=C1CCS(=O)(=O)c2c(C)cc(C(=O)O)c(C)c21 |
| > 300 °C | Cn1c2cc(Cl)ccc2c2c(=O)[nH]c(-c3ccccc3)nc21 |
| 120 to 123 °C | CS(=O)(=O)OCC1CCN(c2ccc(Br)cc2)C1=O (stereo not drawn) |
| 188 to 190 °C | CC(C)(C)[Si](C)(C)Oc1ccc2c(c1)OC(O)c1c-2ccc2cc(O[Si](C)(C)C(C)(C)C)ccc12 (stereo not drawn) |
| 88 to 91 °C | CC(C)(C(O)c1ccc2c(c1)OCO2)[N+](=O)[O-] (stereo not drawn) |
| 172 to 173 °C | CC(C)CCN1C(=O)C(NC(=O)Oc2cccc(N(C)C)c2)C(=O)N(CC23CC4CC(CC(C4)C2)C3)c2ccccc21 (stereo not drawn) |
| 56 to 58 °C | COc1ccc(Cc2cc(SC#N)ccc2OC)cn1 |
| 137 °C | CC1COc2cccc3[nH]c(=O)n1c23 (stereo not drawn) |
| 130 to 131 °C | Cc1nc(C)c(Cl)c(NCc2ccc(OCc3ccccc3)cn2)n1 |
| 159 to 160 °C | CCCn1nc(C(C)C)c(C(=O)OCC)c1Cc1ccc(-c2ccccc2S(=O)(=O)NC(=O)c2ccccc2)cc1 |
| 76 to 78 °C | CC(C)(C)c1cccc(C[C@@H](NC(=O)c2ccc(F)c3ccccc23)[C@@H](O)c2cccc(Cl)c2)c1 (racemic) |
| 206 °C | Nc1ncc(I)c(N)c1I |
| 58 to 59 °C | N#CCC(=O)N1CC=CCC1 |
| 158 to 160 °C | CC(C)C(=O)c1c[nH]c2c(COC(=O)c3ccccc3)cccc2c1=O |
| 190 to 191 °C | NS(=O)(=O)c1cc(Cl)c(Cl)c(Cl)c1 |
| 74 to 75 °C | Cc1cccc(C)c1NNC(=O)OCCCl |

| melting point | Compound |
| --- | --- |
| 214 to 217 °C | O=C1c2ccccc2C(=O)N1CCCN1C(=O)C2(COc3cc4c(cc32)CCO4)c2ccccc21 (stereo not drawn) |
| 137 to 138 °C | CS(=O)c1ccc(-n2cnc3ccc(-c4nnc(SCc5cccc(F)c5)o4)cc32)cc1 (stereo not drawn) |
| 156 to 157 °C | COc1cccc(CNC(=O)c2nc3scc(COCc4ccc(CO)cc4)c3c(=O)[nH]2)c1 |
| 270 °C | CN1CCN(c2cc3c(cc2F)c(=O)c(C(=O)O)cn3CCO)CC1 |
| 150 °C | CC(C)(C)OC(=O)NCC(=O)Oc1cccc(-c2cn3c(n2)sc2ccccc23)c1 |
| 142 to 143 °C | Cc1oc(-c2cc3ccccc3s2)nc1COc1ccc(CCCn2ccnc2)cc1 |
| 206 to 207 °C | CC1(C)CC(C(O)CNc2nc(Cl)nc(NCC(O)C3CC(C)(C)NC(C)(C)C3)n2)CC(C)(C)N1 (stereo not drawn) |
| 124 to 125 °C | CC(Cl)(Cl)C(NC(=O)c1cccc(Cl)c1)NC(=NC#N)Nc1ccc(F)nc1 (stereo not drawn) |
| 126 °C | C[C@H](NC(=O)c1ccc(C(N)=NO)cc1)C(=O)N1CCC(OCC(=O)OCOC(=O)C(C)(C)C)CC1 |
| 91 °C | CC(=O)SCC(Cc1ccccc1)C(=O)NN1CCCC1 (stereo not drawn) |
| 310 °C | O=C1NC(=O)c2c3ccccc3cc3cccc1c23 |
| 170 to 172 °C | Cc1cc(SCC(CS(=O)(=O)c2ccc(-c3ccc(Cl)cc3)cc2)C(=O)O)nc(C)n1 (stereo not drawn) |
| 97 to 99 °C | Cc1c(C)c2c(c(C)c1NCc1ccccc1)C(c1cccc(C3OCCO3)c1)CO2 (stereo not drawn) |
| 65 to 70 °C | CCCN(C(=O)CCl)[C@@H]1CCc2cc3c(cc2[C@H]1O)OCC3 (relative stereo) |
| 122 °C | N#CCCN1CCN(P(=S)(N2CCN(CCC#N)CC2)N2CCN(CCC#N)CC2)CC1 |
| 50 °C | Clc1ncccc1-c1ccccn1 |
| 103 to 104 °C | Cc1ccc(C(=O)N2CCOCC2)c(Nc2ccc3cn[nH]c3c2)n1 |
| 59 to 62 °C | O=C1CC=C(c2ccc(Cl)cc2)CC1 |

| Compound | melting point |
| --- | --- |
| NCCc1c2n(c3ccccc13)CCNCC2 | 77 to 80 °C |
